Measured values reported in patent US9994533B2, “Method of preparing ATG's analogue, and the application of ATG and it's analogue” (Longhua Hospital Shanghai University of Traditional Chinese …, priority 2016, dated 2018).

Target: T1, PP2A (Homo sapiens, UniProt P62714)
T1 construct: endogenous in cells; host or cells: 293T
Assay: PP2A activity in 293T cells stimulated with ATG analogues
Type: cell-based
Conditions: 10 μM, DMSO as reference, FIG. 11
Experimental: The biological activities of the three compounds were determined by measuring the downstream PP2A activity and the degree of phosphorylation of NF-kB. […] The concentrations of ATG and the three new compounds were 10 μM.

T1 sequence (P62714 whole entry): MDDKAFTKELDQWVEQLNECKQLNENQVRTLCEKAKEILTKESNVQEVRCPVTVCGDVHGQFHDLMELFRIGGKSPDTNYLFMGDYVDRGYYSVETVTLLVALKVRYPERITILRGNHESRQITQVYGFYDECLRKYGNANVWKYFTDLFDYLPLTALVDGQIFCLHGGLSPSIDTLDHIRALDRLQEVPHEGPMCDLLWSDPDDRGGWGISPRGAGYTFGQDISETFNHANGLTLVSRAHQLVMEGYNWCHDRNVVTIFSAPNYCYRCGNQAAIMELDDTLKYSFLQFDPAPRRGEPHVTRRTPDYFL

Potassium trifluoro (4-(5-(3,4,5-trimethoxyphenyl)-1,2,4-oxadiazol-3-yl) phenyl) borate [BT282]
effect on PP2A activity relative to native ATG: higher activity to PP2A than natural ATG
